Data as given in patent publication US20260201008A1, “SECRETIN-DERIVED GLP1R SELECTIVE AGONISTS” (GUBRA A/S, priority 2023, published 2026).
Like-named read-outs stand apart in the source and are kept apart here. Numbered stars: 1 amine (or outer) side, 2 acyl side, 3 side chain; on linkers, the order of the positions; unused ones are H or OH. Square brackets hold non-standard residues; d marks the D form. Side chains are listed from the residue outwards. Peptide text beside a SMILES is read from it. * marks the point of attachment. C18 diacid = O=C(O)CCCCCCCCCCCCCCCCC(=O)*; γGlu = O=C(O)[C@H](CCC(=O)[*:2])N[*:1]; AEEA = NCCOCCOCC(=O)O; Aib = CC(C)(N)C(=O)O

Key:
[1] = molecular target: SCTR (Homo sapiens, UniProt P47872); experiment: hSCTR potency, cAMP accumulation in CHO-K1 cells stably overexpressing hSCTR; assay type: cell-based; parameters: alternatively Euroscreen ES-712-AF; FAST-0161L; host or cells: CHO-K1; conditions: read-out: pEC50 hSCTR (converted)
SCTR, sequence (P47872 23-440): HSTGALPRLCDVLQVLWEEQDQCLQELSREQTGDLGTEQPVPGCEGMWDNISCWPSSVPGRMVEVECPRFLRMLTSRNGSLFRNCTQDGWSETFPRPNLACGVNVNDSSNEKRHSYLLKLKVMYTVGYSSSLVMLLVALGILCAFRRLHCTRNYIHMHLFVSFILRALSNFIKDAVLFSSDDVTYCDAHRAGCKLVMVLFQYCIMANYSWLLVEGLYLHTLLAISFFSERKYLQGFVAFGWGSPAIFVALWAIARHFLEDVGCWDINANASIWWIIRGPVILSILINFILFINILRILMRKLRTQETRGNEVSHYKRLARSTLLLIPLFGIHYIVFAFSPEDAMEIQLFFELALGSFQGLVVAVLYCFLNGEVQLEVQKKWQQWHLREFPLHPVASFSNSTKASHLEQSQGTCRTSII
Source text: (§1) Crude library peptides are screened in 10-fold serial dilutions of 5 concentrations, n=1 time. Tip change is done for the first two serial dilutions. Compound starting concentration (top) will be adjusted throughout the study if needed.
(§2) Purified peptides are screened in 3-fold serial dilutions of 11 concentrations, n=2 times. Tip change is done for all serial dilutions. Compound starting concentration (top) will be adjusted throughout the study. If the top concentration is adjusted or a 5-fold difference in calculated EC50 values is observed, n is increased by 1. EC50 values were calculated by nonlinear regression using sigmoid concentration-response with variable slope.
(§3) Frozen division arrested CHO-K1 cells stably overexpressing the hSCTR were obtained from PerkinElmer (ES-712-AF). Alternatively, a CHO-K1 cell line stably overexpressing the hSCTR was obtained from Euroscreen (FAST-0161L), expanded, aliquoted and frozen. An aliquot was thawed and plated in DPBS with 0.05% casein and 0.5 mM IBMX as 2000 cells/well in a 384-well format. The cells were then immediately stimulated for 30 min at room temperature with graded doses of test compound using human secretin (synthesized at Gubra) as a positive control. cAMP accumulation was measured using a Cisbio assay for Gs coupled receptors (cat. no. 62AM4PEC), where the assay reagents were added as per the manufacturer's instructions and time-resolved fluorescence energy transfer recorded after one hour on a CLARIOstar (BMG Labtech) plate reader.

[2] = molecular target: GLP1R (Homo sapiens, UniProt P43220); experiment: hGLP1R potency, cAMP accumulation in CHO-K1 cells stably overexpressing hGLP1R; assay type: cell-based; parameters: host or cells: CHO-K1; conditions: for Selectivity: SCTR EC50/GLP1R EC50 ratio
GLP1R, sequence (P43220 24-463): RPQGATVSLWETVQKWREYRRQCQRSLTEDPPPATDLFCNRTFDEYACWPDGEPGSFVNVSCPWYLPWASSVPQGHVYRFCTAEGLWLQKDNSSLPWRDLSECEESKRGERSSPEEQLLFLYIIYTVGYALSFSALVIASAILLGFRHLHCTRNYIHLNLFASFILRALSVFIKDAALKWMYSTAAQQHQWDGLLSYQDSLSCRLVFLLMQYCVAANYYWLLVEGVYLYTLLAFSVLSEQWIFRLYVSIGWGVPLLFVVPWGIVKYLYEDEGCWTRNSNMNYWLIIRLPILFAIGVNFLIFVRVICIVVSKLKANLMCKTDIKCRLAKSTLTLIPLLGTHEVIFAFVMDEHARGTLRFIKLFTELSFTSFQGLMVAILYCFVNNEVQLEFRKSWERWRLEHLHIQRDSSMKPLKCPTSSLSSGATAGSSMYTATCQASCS
Source text: as §1, §2
as §3, with “A” for “Frozen division arrested CHO-K1 cells stably overexpressing the hSCTR were obtained from PerkinElmer (ES-712-AF). Alternatively, a”, “hGLP1R” for “hSCTR”, “(FAST-0145L),” for “(FAST-0161L),”, “GLP-1(7-36)” for “secretin”

[3] = Table 2, extended 30 amino acid peptides
[4] = Table 2, extended 30 amino acid peptides, read-out: PEC50 hGLPR1 (converted)
[5] = Table 3, position X^10 variants of GUB06-046
[6] = Table 4, position X12 variants of GUB06-046
[7] = Table 4, position X12 variants of GUB06-046, read-out: pEC50 hGLPR1 (converted)

| SMILES | EC50 [1, 3] [nM] | Selectivity [2, 3] | EC50 [2, 4] [nM] | EC50 [1, 5] [nM] | EC50 [1, 6] [nM] | Selectivity [2, 5] | Selectivity [2, 6] | EC50 ([2]; Table 3, position X^10 variants of GUB06-046, read-out: pEC50 hGLPR1 (converted)) [nM] | EC50 [2, 7] [nM] |
| --- | --- | --- | --- | --- | --- | --- | --- | --- | --- |
| CC(C)C[C@H](NC(=O)[C@H](Cc1ccccc1)NC(=O)[C@H](CCCNC(=N)N)NC(=O)[C@H](CCC(N)=O)NC(=O)[C@H](CCC(=O)O)NC(=O)[C@H](C)NC(=O)[C@H](C)NC(=O)CNC(=O)[C@H](CCC(=O)O)NC(=O)[C@H](CCCCNC(=O)COCCOCCNC(=O)COCCOCCNC(=O)CC[C@H](NC(=O)CCCCCCCCCCCCCCCCC(=O)O)C(=O)O)NC(=O)[C@H](CC(C)C)NC(=O)[C@H](CCCNC(=N)N)NC(=O)[C@H](CO)NC(=O)[C@@H](NC(=O)[C@H](CC(=O)O)NC(=O)[C@H](CO)NC(=O)[C@@H](NC(=O)[C@H](Cc1ccccc1)NC(=O)[C@@H](NC(=O)CNC(=O)[C@H](CCC(=O)O)NC(=O)C(C)(C)NC(=O)[C@@H](N)Cc1c[nH]cn1)[C@@H](C)O)[C@@H](C)O)C(C)C)C(=O)N[C@@H](CCC(N)=O)C(=O)N[C@@H](Cc1c[nH]cn1)C(=O)N[C@@H](CC(C)C)C(=O)N[C@H](C(=O)N[C@@H](CCC(=O)O)C(=O)N[C@@H](C)C(=O)N[C@@H](CCC(=O)O)C(N)=O)C(C)C [compound 204] (H-H[Aib]EGTFTSDVSRLK([AEEA-AEEA-γGlu-C18 diacid])EGAAEQRFLQHLVEAE-NH2) | 2510 | 285714 | 0.01 | – | – | – | – | – | – |
| CC(C)C[C@H](NC(=O)[C@H](Cc1ccccc1)NC(=O)[C@H](CCCNC(=N)N)NC(=O)[C@H](CCC(N)=O)NC(=O)[C@H](CCC(=O)O)NC(=O)[C@H](C)NC(=O)[C@H](C)NC(=O)CNC(=O)[C@H](CCC(=O)O)NC(=O)[C@H](CCCCNC(=O)COCCOCCNC(=O)COCCOCCNC(=O)CC[C@H](NC(=O)CCCCCCCCCCCCCCCCC(=O)O)C(=O)O)NC(=O)[C@H](CC(C)C)NC(=O)[C@H](CCCNC(=N)N)NC(=O)[C@H](CO)NC(=O)[C@@H](NC(=O)[C@H](CC(=O)O)NC(=O)[C@H](CO)NC(=O)[C@@H](NC(=O)[C@H](Cc1ccccc1)NC(=O)[C@@H](NC(=O)CNC(=O)[C@H](CCC(=O)O)NC(=O)C(C)(C)NC(=O)[C@@H](N)Cc1c[nH]cn1)[C@@H](C)O)[C@@H](C)O)C(C)C)C(=O)N[C@@H](CCC(N)=O)C(=O)N[C@@H](Cc1c[nH]cn1)C(=O)N[C@@H](CC(C)C)C(=O)N[C@H](C(=O)N[C@@H](C)C(=O)N[C@@H](C)C(=O)N[C@@H](CCC(=O)O)C(N)=O)C(C)C [compound 206] (H-H[Aib]EGTFTSDVSRLK([AEEA-AEEA-γGlu-C18 diacid])EGAAEQRFLQHLVAAE-NH2) | 5010 | 312500 | 0.0158 | – | – | – | – | – | – |
| CC[C@H](C)[C@H](NC(=O)[C@H](Cc1ccccc1)NC(=O)[C@H](CCCNC(=N)N)NC(=O)[C@H](CCC(N)=O)NC(=O)[C@H](CC(C)C)NC(=O)[C@H](C)NC(=O)[C@H](C)NC(=O)CNC(=O)[C@H](CCC(=O)O)NC(=O)[C@H](CC(C)C)NC(=O)[C@H](CC(C)C)NC(=O)[C@H](CCCNC(=N)N)NC(=O)[C@H](CO)NC(=O)[C@H](CC(C)C)NC(=O)[C@H](CC(=O)O)NC(=O)[C@H](CO)NC(=O)[C@@H](NC(=O)[C@H](Cc1ccccc1)NC(=O)[C@@H](NC(=O)CNC(=O)[C@H](CCC(=O)O)NC(=O)C(C)(C)NC(=O)[C@@H](N)Cc1c[nH]cn1)[C@@H](C)O)[C@@H](C)O)C(=O)N[C@@H](CCC(N)=O)C(=O)N[C@@H](Cc1c[nH]c2ccccc12)C(=O)N[C@@H](CC(C)C)C(=O)N[C@H](C(N)=O)C(C)C [compound 216] (H-H[Aib]EGTFTSDLSRLLEGAALQRFIQWLV-NH2) | – | – | – | 0.501 | 0.501 | 13 | 13 | 0.0398 | 0.0398 |
| CC[C@H](C)[C@H](NC(=O)[C@H](Cc1ccccc1)NC(=O)[C@H](CCCNC(=N)N)NC(=O)[C@H](CCC(N)=O)NC(=O)[C@H](CC(C)C)NC(=O)[C@H](C)NC(=O)[C@H](C)NC(=O)CNC(=O)[C@H](CCC(=O)O)NC(=O)[C@H](CC(C)C)NC(=O)[C@H](CC(C)C)NC(=O)[C@H](CCC(=O)O)NC(=O)[C@H](CO)NC(=O)[C@H](CC(C)C)NC(=O)[C@H](CC(=O)O)NC(=O)[C@H](CO)NC(=O)[C@@H](NC(=O)[C@H](Cc1ccccc1)NC(=O)[C@@H](NC(=O)CNC(=O)[C@H](CCC(=O)O)NC(=O)C(C)(C)NC(=O)[C@@H](N)Cc1c[nH]cn1)[C@@H](C)O)[C@@H](C)O)C(=O)N[C@@H](CCC(N)=O)C(=O)N[C@@H](Cc1c[nH]c2ccccc12)C(=O)N[C@@H](CC(C)C)C(=O)N[C@H](C(N)=O)C(C)C [compound 224] (H-H[Aib]EGTFTSDLSELLEGAALQRFIQWLV-NH2) | – | – | – | – | 1.58 | – | 120 | – | 0.0126 |
| CC[C@H](C)[C@H](NC(=O)[C@H](Cc1ccccc1)NC(=O)[C@H](CCCNC(=N)N)NC(=O)[C@H](CCC(N)=O)NC(=O)[C@H](CC(C)C)NC(=O)[C@H](C)NC(=O)[C@H](C)NC(=O)CNC(=O)[C@H](CCC(=O)O)NC(=O)[C@H](CC(C)C)NC(=O)[C@H](CC(C)C)NC(=O)[C@H](Cc1c[nH]c2ccccc12)NC(=O)[C@H](CO)NC(=O)[C@H](CC(C)C)NC(=O)[C@H](CC(=O)O)NC(=O)[C@H](CO)NC(=O)[C@@H](NC(=O)[C@H](Cc1ccccc1)NC(=O)[C@@H](NC(=O)CNC(=O)[C@H](CCC(=O)O)NC(=O)C(C)(C)NC(=O)[C@@H](N)Cc1c[nH]cn1)[C@@H](C)O)[C@@H](C)O)C(=O)N[C@@H](CCC(N)=O)C(=O)N[C@@H](Cc1c[nH]c2ccccc12)C(=O)N[C@@H](CC(C)C)C(=O)N[C@H](C(N)=O)C(C)C [compound 228] (H-H[Aib]EGTFTSDLSWLLEGAALQRFIQWLV-NH2) | – | – | – | – | 0.794 | – | 53 | – | 0.0158 |
| CC[C@H](C)[C@H](NC(=O)[C@H](Cc1ccccc1)NC(=O)[C@H](CCCNC(=N)N)NC(=O)[C@H](CCC(N)=O)NC(=O)[C@H](CC(C)C)NC(=O)[C@H](C)NC(=O)[C@H](C)NC(=O)CNC(=O)[C@H](CCC(=O)O)NC(=O)[C@H](CC(C)C)NC(=O)[C@H](CC(C)C)NC(=O)CNC(=O)[C@H](CO)NC(=O)[C@H](CC(C)C)NC(=O)[C@H](CC(=O)O)NC(=O)[C@H](CO)NC(=O)[C@@H](NC(=O)[C@H](Cc1ccccc1)NC(=O)[C@@H](NC(=O)CNC(=O)[C@H](CCC(=O)O)NC(=O)C(C)(C)NC(=O)[C@@H](N)Cc1c[nH]cn1)[C@@H](C)O)[C@@H](C)O)C(=O)N[C@@H](CCC(N)=O)C(=O)N[C@@H](Cc1c[nH]c2ccccc12)C(=O)N[C@@H](CC(C)C)C(=O)N[C@H](C(N)=O)C(C)C [compound 226] (H-H[Aib]EGTFTSDLSGLLEGAALQRFIQWLV-NH2) | – | – | – | – | 5.01 | – | 145 | – | 0.0316 |
| CC[C@H](C)[C@H](NC(=O)[C@H](Cc1ccccc1)NC(=O)[C@H](CCCNC(=N)N)NC(=O)[C@H](CCC(N)=O)NC(=O)[C@H](CC(C)C)NC(=O)[C@H](C)NC(=O)[C@H](C)NC(=O)CNC(=O)[C@H](CCC(=O)O)NC(=O)[C@H](CC(C)C)NC(=O)[C@H](CC(C)C)NC(=O)[C@H](Cc1ccc(O)cc1)NC(=O)[C@H](CO)NC(=O)[C@H](CC(C)C)NC(=O)[C@H](CC(=O)O)NC(=O)[C@H](CO)NC(=O)[C@@H](NC(=O)[C@H](Cc1ccccc1)NC(=O)[C@@H](NC(=O)CNC(=O)[C@H](CCC(=O)O)NC(=O)C(C)(C)NC(=O)[C@@H](N)Cc1c[nH]cn1)[C@@H](C)O)[C@@H](C)O)C(=O)N[C@@H](CCC(N)=O)C(=O)N[C@@H](Cc1c[nH]c2ccccc12)C(=O)N[C@@H](CC(C)C)C(=O)N[C@H](C(N)=O)C(C)C [compound 229] (H-H[Aib]EGTFTSDLSYLLEGAALQRFIQWLV-NH2) | – | – | – | – | 10 | – | 699 | – | 0.0158 |
